The source of these data is article PMC6225122 (2018).

Converted amounts (≈) assume the structure as drawn.

Assay [1] concerns aptamer 47 (DNA, aptamer) ACGCATAGGTCATGCCAAGCTGTACACCGTCCTGGCCTGGTTGGGATGTCCTATGCGT
Kind of assay: AuNP colorimetric specificity assay (A620/A520). The note with it: 0.9 M NaCl added after binding; 1 μg/mL compound, 0.4 μM aptamer, room temperature, 30 min.

For assay [2], the system named is aptamer 78 (DNA, aptamer) ACGCATAGGGTACGCCACAGATCGACCTCTGGTTGGTCCTGTTGTGTGGCCTATGCGT
Nature of the assay: AuNP colorimetric specificity assay (A620/A520). The conditions noted are these: 0.9 M NaCl added after binding; 1 μg/mL compound, 0.4 μM aptamer, room temperature, 30 min.

Assay [3] relates to aptamer 154 (DNA, aptamer) ACGCATAGGGCATCACACATGTCCTTGCCATTGCTGACTTGTTTGGTGTCCTATGCGT
Kind of assay: AuNP colorimetric specificity assay (A620/A520). The note with it: 0.9 M NaCl added after binding; 1 μg/mL compound, 0.4 μM aptamer, room temperature, 30 min.

Assay [4] has as its system aptamer 132 (DNA, aptamer) ACGCATAGGGACCATGCGCAGTGAACTTGGTTCTTTGTGCTCATGTGTGCCTATGCGT
Kind of assay: AuNP colorimetric specificity assay (A620/A520). The note with it: 0.9 M NaCl added after binding; 1 μg/mL compound, 0.4 μM aptamer, room temperature, 30 min.

Assay [5] has as its system aptamer 64 (DNA, aptamer) ACGCATAGGTACACCACATCGGATCGTAATGCGTATGTGACTCAGTGTGCCTATGCGT
Nature of the assay: AuNP colorimetric specificity assay (A620/A520). The conditions noted are these: 0.9 M NaCl added after binding; 1 μg/mL compound, 0.4 μM aptamer, room temperature, 30 min.

The test system of assay [6] is aptamer 28 (DNA, aptamer) ACGCATAGGATGCAACAACGCGAATGCCACCAATTCGTGCTTGTCGTGTCCTATGCGT
Nature of the assay: AuNP colorimetric specificity assay (A620/A520). The note with it: 0.9 M NaCl added after binding; 1 μg/mL compound, 0.4 μM aptamer, room temperature, 30 min.

Assay [7] concerns aptamer 154 (DNA, aptamer) ACGCATAGGGCATCACACATGTCCTTGCCATTGCTGACTTGTTTGGTGTCCTATGCGT
Nature of the assay: AuNP colorimetric titration (A520). The note with it: 0.9 M NaCl (10 µL) added after binding; aptamer 0-1600 nM titrated against 1 μg/mL CBL, water, 30 min, room temperature.

In assay [8] the test system is aptamer 64 (DNA, aptamer) ACGCATAGGTACACCACATCGGATCGTAATGCGTATGTGACTCAGTGTGCCTATGCGT
Kind of assay: AuNP colorimetric titration (A520). The conditions noted are these: 0.9 M NaCl (10 µL) added after binding; aptamer 0-1600 nM titrated against 1 μg/mL CBL, water, 30 min, room temperature.

Assay [9] concerns aptamer 28 (DNA, aptamer) ACGCATAGGATGCAACAACGCGAATGCCACCAATTCGTGCTTGTCGTGTCCTATGCGT
Nature of the assay: circular dichroism. The conditions noted are these: binding buffer: 8 g/L NaCl, 0.2 g/L KCl, 0.1 g/L MgCl2·6H2O, 0.1 g/L CaCl2; 1 μM aptamer, 10 μM CBL, room temperature, 30 min. (In general: CD spectra are sensitive to the conformation of chiral molecules.)

Assay [10] deals with aptamer 132 (DNA, aptamer) ACGCATAGGGACCATGCGCAGTGAACTTGGTTCTTTGTGCTCATGTGTGCCTATGCGT
Kind of assay: circular dichroism. The note with it: binding buffer: 8 g/L NaCl, 0.2 g/L KCl, 0.1 g/L MgCl2·6H2O, 0.1 g/L CaCl2; 1 μM aptamer, 10 μM CBL, room temperature, 30 min.

Assay [11] shares this test system. Kind of assay: AuNP colorimetric titration (A520). The note with it: 0.9 M NaCl (10 µL) added after binding; aptamer 0-1600 nM titrated against 1 μg/mL CBL, water, 30 min, room temperature.
For assay [12], the system named is aptamer 47 (DNA, aptamer) ACGCATAGGTCATGCCAAGCTGTACACCGTCCTGGCCTGGTTGGGATGTCCTATGCGT
Nature of the assay: AuNP colorimetric titration (A520). The conditions noted are these: 0.9 M NaCl (10 µL) added after binding; aptamer 0-1600 nM titrated against 1 μg/mL CBL, water, 30 min, room temperature.

Assay [13] relates to aptamer 78 (DNA, aptamer) ACGCATAGGGTACGCCACAGATCGACCTCTGGTTGGTCCTGTTGTGTGGCCTATGCGT
Kind of assay: AuNP colorimetric titration (A520). The note with it: 0.9 M NaCl (10 µL) added after binding; aptamer 0-1600 nM titrated against 1 μg/mL CBL, water, 30 min, room temperature.

Assay [14] deals with aptamer 28 (DNA, aptamer) ACGCATAGGATGCAACAACGCGAATGCCACCAATTCGTGCTTGTCGTGTCCTATGCGT
Kind of assay: AuNP colorimetric titration (A520). The note with it: 0.9 M NaCl (10 µL) added after binding; aptamer 0-1600 nM titrated against 1 μg/mL CBL, water, 30 min, room temperature.

Assay [15] deals with aptamer 78 (DNA, aptamer) ACGCATAGGGTACGCCACAGATCGACCTCTGGTTGGTCCTGTTGTGTGGCCTATGCGT
Nature of the assay: circular dichroism. The note with it: binding buffer: 8 g/L NaCl, 0.2 g/L KCl, 0.1 g/L MgCl2·6H2O, 0.1 g/L CaCl2; 1 μM aptamer, 10 μM CBL, room temperature, 30 min.

For assay [16], the system named is aptamer 47 (DNA, aptamer) ACGCATAGGTCATGCCAAGCTGTACACCGTCCTGGCCTGGTTGGGATGTCCTATGCGT
Kind of assay: circular dichroism. The note with it: binding buffer: 8 g/L NaCl, 0.2 g/L KCl, 0.1 g/L MgCl2·6H2O, 0.1 g/L CaCl2; 1 μM aptamer, 10 μM CBL, room temperature, 30 min.

Assay [17] has as its system 5′-biotin aptamer 47 (DNA, aptamer) ACGCATAGGTCATGCCAAGCTGTACACCGTCCTGGCCTGGTTGGGATGTCCTATGCGT
Nature of the assay: indirect competitive enzyme-linked aptamer assay (ic-ELAA). The note with it: binding buffer: 8 g/L NaCl, 0.2 g/L KCl, 0.1 g/L MgCl2·6H2O, 0.1 g/L CaCl2; competition with coated CBL-BSA; 1 μM aptamer (50 μL), 37 °C, 1 h.

The subject of assay [18] is aptamer 64 (DNA, aptamer) ACGCATAGGTACACCACATCGGATCGTAATGCGTATGTGACTCAGTGTGCCTATGCGT
Kind of assay: circular dichroism. The note with it: binding buffer: 8 g/L NaCl, 0.2 g/L KCl, 0.1 g/L MgCl2·6H2O, 0.1 g/L CaCl2; 1 μM aptamer, 10 μM CBL, room temperature, 30 min.

The subject of assay [19] is aptamer 154 (DNA, aptamer) ACGCATAGGGCATCACACATGTCCTTGCCATTGCTGACTTGTTTGGTGTCCTATGCGT
Nature of the assay: circular dichroism. The note with it: binding buffer: 8 g/L NaCl, 0.2 g/L KCl, 0.1 g/L MgCl2·6H2O, 0.1 g/L CaCl2; 1 μM aptamer, 10 μM CBL, room temperature, 30 min.

Turning to `CC(C)(C)NCC(O)c1cc(O)cc(O)c1` (stereo not shown), the binding entry in [1], in [2], in [3], in [4], in assay [5] and in assay [6] was “no” throughout.
As to `CC(C)(C)NCC(O)c1ccc(O)c(CO)c1` (stereo not shown), the binding result in assay [1], in assay [2], in [3], in [4], in assay [5] and in assay [6] was “no” throughout.
As for `CC(C)(C)NCC(O)c1cc(Cl)c(N)c(Cl)c1` (stereo not shown), the dissociation constant Kd (in general, the free concentration of one partner at which half of the binding sites on the other are occupied at equilibrium, for simple one-to-one binding) amounted to 268.8 ± 40.43 nM in assay [7]; 123.3 ± 14.28 nM in [8]; 221.6 ± 41.87 nM in [11]; 42.17 ± 8.98 nM in assay [12]; 201.1 ± 42.42 nM in assay [13]; 321 ± 104.5 nM in assay [14]. Besides, the binding result in assay [9], in assay [10], in assay [15], in assay [16], in assay [18] and in assay [19] was “yes” throughout. Moreover, in assay [17], the IC50 (in general, the concentration needed to halve the response being measured) worked out at 5.44 ± 0.01 ng/mL (≈ 0.0196 µM).
Regarding `CC(CCc1ccc(O)cc1)NCC(O)c1ccc(O)cc1` (stereo not shown), the binding entry in assay [1], in [2], in assay [3], in assay [4], in assay [5] and in assay [6] was “no” in each case.
